Reference: paper PMC10539501 (Nature Communications, 2023)
Starred links: 1 amine or outer side, 2 acyl side, 3 side chain; linkers in the order of their positions; H or OH if unused. Non-standard residues stand in square brackets, D forms with d. Residues, ends and D or L forms follow the SMILES beside them. X13 = CC[C@H](C)[C@H](NC(=S)[C@@H]1CCCN1[*:1])C(=O)[*:2]; X17 = CC[C@H](C)[C@H](N[*:1])C(=S)N1CCC[C@H]1C(=O)[*:2]; AlaΨ(CSNH)Ala = C[C@H](NC(=S)[C@H](C)N[*:1])C(=O)[*:2]; X11 = CC[C@H](C)[C@H](N[*:1])C(=S)N[C@@H](C)C(=O)[*:2]; X2 = CC(C)C[C@H](NC(=S)[C@@H](CC(C)C)N[*:1])C(=O)[*:2]; X9 = O=C([C@@H]1CCCN1C(=S)[C@H](Cc1ccccc1)N[*:1])[*:2]; X14 = C[C@H](N[*:1])C(=S)N[C@@H](Cc1ccccc1)C(=O)[*:2]; X15 = CC(C)C[C@@H](NC(=S)[C@H]1CCCN1[*:1])C(=O)[*:2]; X19 = CC(C)C[C@H](NC(=S)[C@@H]1CCCN1[*:1])C(=O)[*:2]; X18 = C[C@@H](N[*:1])C(=S)N1CCC[C@H]1C(=O)[*:2]

Key:
[1] = Octanol-water distribution coefficient (logD7.4); conditions: octanol/water, pH 7.4
[2] = assay type: physicochemical
[3] = PAMPA passive permeability; assay type: in vitro ADME;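 also: passive permeability across an artificial membrane in 96-well pre-coated PAMPA plates, which lack transporters and efflux systems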
Method: Encouraged by this, the passive permeability of the analogs was evaluated using an artificial membrane (PAMPA), which measures permeability of compounds in the absence of transporters and efflux systems[32].
96-well BD Corning® pre-coated PAMPA plates were used following the supplier’s protocol, details in Supplementary Information.

physchem = conditions: pH 7.4
in vitro = in vitro ADME, human; conditions: human; for Papp A→B: Caco-2, Papp A-B avg
Method: (§1) The Caco-2 cell (HTB-37^TM from ATCC, procured from NCCS, Pune) monolayer was washed and pre-incubated at 37 °C and 5% CO2 for 30 min with HBSS-HEPES buffer containing 1% DMSO prior to experimentation. The assay was performed 21 days post-seeding of cells. TEER values were measured before starting and after the completion of the assay. Acceptor and donor well concentrations of the peptides and controls were assessed through LC-MS/MS.

Caco-2 cells = assay: in vitro; assay type: in vitro ADME, human; conditions: Caco-2
Method: as §1
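For Papp A-B + Elacridar avg in this document: Caco-2 monolayers used 21 days after seeding in HBSS-HEPES buffer with 1% DMSO, donor and acceptor levels quantified by LC-MS/MS, TEER checked before and after.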
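For Papp A-B avg (second block) in this document: Caco-2 monolayers used 21 days after seeding in HBSS-HEPES buffer with 1% DMSO, donor and acceptor levels quantified by LC-MS/MS, TEER checked before and after.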
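For Papp A-B set 1 (second block) in this document: Caco-2 monolayers used 21 days after seeding in HBSS-HEPES buffer with 1% DMSO, donor and acceptor levels quantified by LC-MS/MS, TEER checked before and after.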
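For Papp A-B set 2 (second block) in this document: Caco-2 monolayers used 21 days after seeding in HBSS-HEPES buffer with 1% DMSO, donor and acceptor levels quantified by LC-MS/MS, TEER checked before and after.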

| % solubility [2] | logD (physchem) | Papp ([3]; Pe Avg) | SMILES | other results |
| --- | --- | --- | --- | --- |
| – | – | – | C[C@@H]1NC(=O)[C@H](C)NC(=O)[C@@H](C)NC(=O)[C@H](C)NC(=S)[C@H](C)NC(=O)[C@H](C)NC1=O [9e] | logD [1]: -0.54 |
| – | – | – | C[C@@H]1NC(=O)[C@H](C)NC(=O)[C@H](C)NC(=O)[C@@H](C)NC(=S)[C@H](C)NC(=O)[C@H](C)NC1=O [9f] | logD [1]: -0.24 |
| 74% | 0.55 | – | CC[C@H](C)[C@@H]1NC(=O)[C@@H]2CCCN2C(=O)[C@H](Cc2ccccc2)NC(=O)[C@H](C)NC(=O)[C@H](C)NC(=S)[C@H]([C@@H](C)CC)NC(=O)[C@@H]2CCCN2C1=O [11a] (cyclo(AFPIP[X11])) | Pe Avg [3]: 4.6 ×10⁻⁶ cm/s; Papp ([3]; Pe (PAMPA vs logD7.4)): 4.67 ×10⁻⁶ cm/s |
| 93% | 0.28 | 0.4 ×10⁻⁶ cm/s | CC[C@H](C)[C@@H]1NC(=O)[C@@H]2CCCN2C(=O)[C@H]([C@@H](C)CC)NC(=O)[C@@H]2CCCN2C(=O)[C@H](Cc2ccccc2)NC(=O)[C@H](C)NC(=S)[C@H](C)NC1=O [11b] (cyclo(FPIPI[AlaΨ(CSNH)Ala])) | Papp ([3]; Pe (PAMPA vs logD7.4)): 0.42 ×10⁻⁶ cm/s |
| 76% | 0.43 | 1 ×10⁻⁶ cm/s | CC[C@H](C)[C@@H]1NC(=O)[C@@H]2CCCN2C(=O)[C@H]([C@@H](C)CC)NC(=O)[C@@H]2CCCN2C(=O)[C@H](Cc2ccccc2)NC(=S)[C@H](C)NC(=O)[C@H](C)NC1=O [11c] (cyclo(A[X14]PIPI)) | – |
| 85% | 0.33 | 0.4 ×10⁻⁶ cm/s | CC[C@H](C)[C@@H]1NC(=O)[C@@H]2CCCN2C(=O)[C@H]([C@@H](C)CC)NC(=O)[C@@H]2CCCN2C(=S)[C@H](Cc2ccccc2)NC(=O)[C@H](C)NC(=O)[C@H](C)NC1=O [11d] (cyclo(AA[X9]IPI)) | – |
| 65% | 0.58 | 0.8 ×10⁻⁶ cm/s | CC[C@H](C)[C@@H]1NC(=O)[C@@H]2CCCN2C(=O)[C@H]([C@@H](C)CC)NC(=S)[C@@H]2CCCN2C(=O)[C@H](Cc2ccccc2)NC(=O)[C@H](C)NC(=O)[C@H](C)NC1=O [11e] (cyclo(AAF[X13]PI)) | Papp ([3]; Pe (PAMPA vs logD7.4)): 0.83 ×10⁻⁶ cm/s |
| 76% | 0.37 | 1.1 ×10⁻⁶ cm/s | CC[C@H](C)[C@@H]1NC(=O)[C@@H]2CCCN2C(=S)[C@H]([C@@H](C)CC)NC(=O)[C@@H]2CCCN2C(=O)[C@H](Cc2ccccc2)NC(=O)[C@H](C)NC(=O)[C@H](C)NC1=O [11f] (cyclo(AAFP[X17]I)) | – |
| 93% | 0.29 | 0.3 ×10⁻⁶ cm/s | CC[C@H](C)[C@@H]1NC(=S)[C@@H]2CCCN2C(=O)[C@H]([C@@H](C)CC)NC(=O)[C@@H]2CCCN2C(=O)[C@H](Cc2ccccc2)NC(=O)[C@H](C)NC(=O)[C@H](C)NC1=O [11g] (cyclo(AAFPI[X13])) | Papp ([3]; Pe (PAMPA vs logD7.4)): 0.35 ×10⁻⁶ cm/s |
| 69% | 1.34 | 4.4 ×10⁻⁶ cm/s | CC(C)C[C@@H]1NC(=O)[C@@H](CC(C)C)NC(=O)[C@H]2CCCN2C(=O)[C@H](CC(C)C)NC(=S)[C@@H](CC(C)C)NC(=O)[C@H](CC(C)C)NC(=O)[C@@H]2CCCN2C(=O)[C@@H](C)NC1=O [12a] (cyclo(L[dA]PL[X2][dP][dL])) | – |
| 15% | 2.3 | 1.4 ×10⁻⁶ cm/s | CC(C)C[C@@H]1NC(=O)[C@@H](CC(C)C)NC(=S)[C@H]2CCCN2C(=O)[C@H](CC(C)C)NC(=O)[C@@H](CC(C)C)NC(=O)[C@H](CC(C)C)NC(=O)[C@@H]2CCCN2C(=O)[C@@H](C)NC1=O [12c] (cyclo(L[dA]PL[dL]L[X15])) | – |
| 25% | 1.82 | 8.9 ×10⁻⁶ cm/s | CC(C)C[C@@H]1NC(=O)[C@@H]2CCCN2C(=O)[C@@H](C)NC(=O)[C@H](CC(C)C)NC(=S)[C@@H](CC(C)C)NC(=O)[C@H]2CCCN2C(=O)[C@H](CC(C)C)NC(=O)[C@@H](CC(C)C)NC1=O [12d] (cyclo(L[dL]L[dP][X2][dA]P)) | – |
| 30% | 1.58 | 6.4 ×10⁻⁶ cm/s | CC(C)C[C@@H]1NC(=O)[C@@H](CC(C)C)NC(=O)[C@H]2CCCN2C(=O)[C@H](CC(C)C)NC(=O)[C@@H](CC(C)C)NC(=O)[C@H](CC(C)C)NC(=O)[C@@H]2CCCN2C(=S)[C@@H](C)NC1=O [12f] (cyclo(L[dL]L[dP][dL]L[X18])) | – |
| 46% | 1.59 | 10.2 ×10⁻⁶ cm/s | CC(C)C[C@@H]1NC(=O)[C@@H](CC(C)C)NC(=O)[C@H]2CCCN2C(=O)[C@H](CC(C)C)NC(=O)[C@@H](CC(C)C)NC(=O)[C@H](CC(C)C)NC(=S)[C@@H]2CCCN2C(=O)[C@@H](C)NC1=O [12g] (cyclo(L[dA][X19][dL]L[dP][dL])) | – |
| – | – | – | C[C@H]1O[C@@H](O[C@H]2[C@@H](O)C[C@H](O[C@H]3[C@@H](O)C[C@H](O[C@H]4CC[C@@]5(C)[C@H](CC[C@@H]6[C@@H]5C[C@@H](O)[C@]5(C)[C@@H](C7=CC(=O)OC7)CC[C@]65O)C4)O[C@@H]3C)O[C@@H]2C)C[C@H](O)[C@@H]1O [Digoxin, reference compound] | Papp A→B (in vitro): 0.721 ×10⁻⁶ cm/s; Papp B→A (in vitro; Caco-2, Papp B-A avg): 29.5 ×10⁻⁶ cm/s; Papp A-B + Elacridar avg (Caco-2 cells): 1.5 ×10⁻⁶ cm/s; Papp A-B avg (second block) (Caco-2 cells): 0.72 ×10⁻⁶ cm/s; Papp A-B set 1 (second block) (Caco-2 cells): 0.79 ×10⁻⁶ cm/s; Papp A-B set 2 (second block) (Caco-2 cells): 0.65 ×10⁻⁶ cm/s; Papp B-A + Elacridar avg (Caco-2 cells): 6.2 ×10⁻⁶ cm/s; Papp B-A avg (second block) (Caco-2 cells): 29.5 ×10⁻⁶ cm/s; Papp B-A set 1 (second block) (Caco-2 cells): 28.5 ×10⁻⁶ cm/s; Papp B-A set 2 (second block) (Caco-2 cells): 30.4 ×10⁻⁶ cm/s |
| – | – | – | CC(C)NCC(O)COc1cccc2ccccc12 (stereo not shown) [Propranolol, reference compound] | Papp A→B (in vitro): 16.6 ×10⁻⁶ cm/s; Papp A-B avg (second block) (Caco-2 cells): 16.6 ×10⁻⁶ cm/s; Papp A-B set 1 (second block) (Caco-2 cells): 17.28 ×10⁻⁶ cm/s; Papp A-B set 2 (second block) (Caco-2 cells): 15.87 ×10⁻⁶ cm/s; Papp B-A avg (second block) (Caco-2 cells): 34.1 ×10⁻⁶ cm/s; Papp B-A set 1 (second block) (Caco-2 cells): 37.6 ×10⁻⁶ cm/s; Papp B-A set 2 (second block) (Caco-2 cells): 30.7 ×10⁻⁶ cm/s |
| – | -2.88 | – | NCCCC[C@H](NC(=O)[C@@H](N)Cc1ccccc1)C(=O)O [compound 1] | – |
| – | -2.56 | – | N[C@@H](Cc1ccccc1)C(=O)N[C@@H](CCC(=O)O)C(=O)O [compound 2] (H-Phe-Glu-OH) | – |
| – | -2.22 | – | N[C@@H](Cc1ccccc1)C(=O)NCC(=O)O [compound 3] (H-Phe-Gly-OH) | – |
| – | -1.28 | – | CC(C)[C@H](NC(=O)[C@@H](N)Cc1ccccc1)C(=O)O [compound 5] (H-Phe-Val-OH) | – |
| – | -1.41 | – | CSCC[C@H](NC(=O)[C@@H](N)Cc1ccccc1)C(=O)O [compound 6] (H-Phe-Met-OH) | – |
| – | -0.65 | – | N[C@@H](Cc1ccccc1)C(=O)N[C@@H](Cc1c[nH]c2ccccc12)C(=O)O [compound 7] (H-Phe-Trp-OH) | – |
| – | – | – | C[C@@H]1NC(=O)[C@H](C)NC(=O)[C@H](C)NC(=O)[C@@H](C)NC(=O)[C@H](C)NC1=O [compound 8, cyclo(-D-Ala-L-Ala4-)] | logD [1]: -1.46 |
| – | – | – | C[C@@H]1NC(=O)[C@H](C)NC(=O)[C@H](C)NC(=O)[C@@H](C)NC(=O)[C@H](C)NC(=O)[C@H](C)NC1=O [compound 9, cyclo(-D-Ala-L-Ala5-)] | logD [1]: -2.48 |
